What all share (test): NCI tumour cell line growth inhibition, 48 h
Experiment [1] has as its system MDA-N.
Experiment [2] has as its system SNB-75 CNS.
The subject of experiment [3] is OVCAR-5 ovarian.
Experiment [4] has as its system MDA-MB-231 breast.
In experiment [5] the test system is NCI-H460 lung.
In experiment [6] the test system is IGROV1 ovarian.
Experiment [7] relates to SF-539 CNS.
The subject of experiment [8] is SNB-19 CNS.
Experiment [9] relates to COLO 205 colon.
Experiment [10] deals with SK-MEL-2 melanoma.

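96-well plates; 48 h exposure; 5 concentrations. Endpoints by linear interpolation between flanking doses. Not reached: highest tested concentration assigned. GI50 marks 50% less growth. At the TGI there is no net growth.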

As to `CSC1NC(c2ccc(Cl)cc2)=C(C#N)C(=O)N1C1OCC(OC(C)=O)C(OC(C)=O)C1OC(C)=O` (configuration not stated), the TGI in experiment [1], in experiment [2], in experiment [3], in experiment [4], in experiment [5] and in experiment [6] was above 100 µM throughout. For the same molecule, the TGI in experiment [7], in experiment [8] and in experiment [9] was above 100 µM each time.

With `COc1ccc(/C=N/n2cnc3[nH]c(C)c(Cc4ccccc4)c3c2=N)cc1`, the TGI in experiment [1], in [2], in experiment [3], in [4], in experiment [5] and in experiment [6] was above 100 µM throughout. In addition, the TGI in [8], in [9] and in experiment [10] was above 100 µM throughout.

As to `CCOC(=O)Cc1nc2c(N)ncnc2n1C1OC(COC(C)=O)C(OC(C)=O)C1OC(C)=O` (configuration not stated), the TGI in experiment [1], in experiment [4], in experiment [5], in experiment [6], in experiment [7] and in experiment [8] was above 100 µM each time. The molecule also yielded a TGI in experiment [9] above 100 µM.

On to `O=C1Nc2ccccc2Nc2ccncc21`, for which the TGI in [2], in experiment [3], in experiment [5], in [6], in [7] and in experiment [8] was above 100 µM each time. For the same molecule, the TGI in [9] and in experiment [10] was above 100 µM throughout.

Regarding `COc1cc(C2c3cc4c(cc3OC(N3CCNCC3)C2C)OCO4)cc(OC)c1OC` (configuration not stated), the TGI in experiment [1] was 0.652 µM; in experiment [3], above 100 µM; in [4], 2.46 µM; in experiment [5], 10.9 µM; in [6] it was 17.5 µM; in [7], 1.94 µM. Further, the figures for the TGI in experiment [8], in experiment [9] and in experiment [10] were above 82.3 µM, 2 µM and above 40.6 µM, respectively.

Turning to `CC1CC(=O)N(N(C)C)C(C#N)(C#N)C1(C#N)C#N` (configuration not stated), the TGI in [1] was 33.2 µM; in experiment [2] it was above 51 µM; in experiment [3], 51.8 µM; in experiment [4], 28.9 µM; in [6], 40 µM; in [7], 59.1 µM. Also, the TGI is above 61.8 µM in [8], 7.99 µM in [9] and 59.3 µM in [10].

As for `Cc1ccc(NC(=O)C(=O)CC(=O)c2sc(Nc3c(C)cccc3C)nc2C)cc1C`, the TGI in [1], in experiment [3], in experiment [4], in experiment [5], in experiment [6] and in experiment [7] was above 100 µM each time. Besides, the TGI in experiment [8], in [9] and in experiment [10] was above 100 µM in each case.

Regarding `O=C(CCc1ccccc1)ON1C(=S)C(c2ccccc2)(c2ccccc2)N=C1Sc1ccccc1`, the TGI was above 100 µM in [2]; above 100 µM in experiment [3]; above 100 µM in [4]; above 100 µM in [5]; 55.5 µM in experiment [6]; above 100 µM in experiment [7]. For the same molecule, the TGI in [8], in experiment [9] and in experiment [10] was above 100 µM each time.

On to `CC(=O)Oc1ccc(/C=C/C(=O)O[C@@H](C(=O)O)[C@@H](OC(=O)/C=C/c2ccc(OC(C)=O)c(OC(C)=O)c2)C(=O)O)cc1OC(C)=O`, for which the TGI in [1], in experiment [2], in [3], in [4], in [5] and in experiment [6] was above 100 µM throughout. For the same molecule, the TGI in experiment [8], in experiment [9] and in experiment [10] was above 100 µM each time.

As for `CCOC(=O)C1=C(C)N(c2ccc(OC)cc2)C2(O)C=CC(=O)C3=C(O)c4ccccc4C(=O)C312` (configuration not stated), the TGI in experiment [1] turned out to be 34 µM; in experiment [3], 33.4 µM; in experiment [4], 34.8 µM; in experiment [5] it was 28 µM; in [6] it was 15.6 µM; in experiment [7], 21.2 µM. For the same molecule, the TGI in experiment [8] came to 41.1 µM; in [9] it was 24 µM; in experiment [10] it was 31 µM.

Take `CC(C)(C)N(Cc1ccc2c(c1)OCO2)C(=O)/C=C\Sc1ccccc1`: the TGI in experiment [1], in experiment [3], in [4], in experiment [6], in experiment [7] and in experiment [8] was above 100 µM in each case. Besides, the TGI in [9] and in experiment [10] was above 100 µM throughout.

`COc1ccc2c(OCc3nnc4ccc(-c5ccccc5)nn34)ccnc2c1`: the GI50 was above 100 µM in experiment [2]; above 100 µM in experiment [3]; above 20.3 µM in experiment [4]; above 100 µM in experiment [6]; above 100 µM in experiment [7]; above 100 µM in experiment [8]. Further, in [10], the GI50 is above 91.1 µM. The TGI in experiment [2], in experiment [3], in experiment [4], in experiment [6], in [7] and in experiment [8] was above 100 µM each time. The TGI in experiment [10] is above 100 µM.

`CC(=O)N1CCn2c1nc1cc(Cl)ccc12`: the TGI in [1], in experiment [3], in [4], in experiment [5], in [6] and in experiment [7] was above 100 µM in each case. Moreover, the TGI in [8] was above 100 µM; in [9] it was above 100 µM; in experiment [10] it was 92.4 µM.

For the molecule `C(=C\N1CCCCC1)/c1nnnn1-c1ccccc1`, the TGI in experiment [1] is above 100 µM; in experiment [2] it was 69.7 µM; in experiment [3], above 100 µM; in experiment [4], 61.6 µM; in experiment [5] it was above 100 µM; in [6], 82.8 µM. The TGI is 76.6 µM in experiment [7], above 100 µM in experiment [8] and above 100 µM in experiment [9].

The record behind these values is PubChem BioAssay (NCI).
